Results reported in EP0705841A1, “Peptides havng antigenic activity against hepatitis A virus (HAV)” (SORIN BIOMEDICA S.p.A., priority 1994, dated 1996).

Test system: 8F4H9B monoclonal antibody
Test: ELISA assay: reactivity of peptides adhering to the solid phase with the 8F4H9B monoclonal antibody
Format: binding, mice
Settings: peptides in monomer form adhering to solid phase (fig.1, fig.2)
Experimental: The solid phase was obtained on PVC trays (Nunc), that were added with 200 µl of a peptide solution at various concentrations in a carbonate buffer 50 mM, pH 9.6. Trays were incubated overnight at 4°C when added with the monomer peptide solution, and for 2 hours at 37°C when added with the tetramer peptide solution.
Trays were saturated with 300 µl of a solution of gelatin 2%, in Tris-HCl, 0.1M, pH 7.5, for 1 hour at room temperature. Antibodies were diluted in a solution, comprising PBS, EDTA 0.03%, Triton-X100 0.2%, Tween 20 0.2% and BSA fraction V 3.2%; and incubated for 3 hours at 37°C. Trays were washed four times with an ET-System Sorin automatic washer, using PBS/Tween 20 0.1%, and the reaction detected by adding 100 µl of a chromogen and a substrate (Sorin DEIA KIT). The reaction was blocked after 30 min. by adding 200 µl of H₂SO₄ 1N, and the absorbance read at 450 nm.

Substance	reactivity with the 8F4H9B-HRP monoclonal antibody
DFMWMH [peptide 17 (Table 1)]	reacted with the antibody, even if having shown a lesser reactivity than the PM peptide
DVMYLH [peptide 36 (Table 1)]	reacted with the antibody, even if having shown a lesser reactivity than the PM peptide
